Earlier results in patent US7402577B2, “Androstane 17-beta-carboxamides as androgen receptor modulators” (priority 2001, dated 2008).

Tests used:
[1] = test system: spinal BMD; conditions: after 7 years of treatment
[2] = test system: fractures; conditions: postmenopausal osteoporotic women, median of 22 months of treatment

NCCCC(O)(P(=O)([O-])O)P(=O)(O)O.O.O.O.[Na+] [alendronate, (4-amino-1-hydroxybutylidene)-bis-phosphonate monosodium trihydrate]
increase in spinal BMD [1]: ≤ 11%

hPTH(1-34): human parathyroid hormone 1-34 fragment (SVSEIQLMHNLGKHLNSMERVEWLRKKLQDVHNF; Parathyroid hormone; UniProt P01270 32-65, looked up, fragment)
reduction in nonvertebral fractures [2]: 54%
reduction in spine fractures [2]: ≥ 65%
